Data as given in ChEMBL document CHEMBL5344435 (J Med Chem, 2024).

Assay: in vivo
Settings: C57BL/6J, mouse, po, 10 mg/kg

Cmax at 24 h: 102 ng/mL
SMILES: [O-][n+]1cc(O)cc(CCCc2ccc(Cl)c(C(F)(F)F)c2)c1
